Source: patent US8889680B2, “Treatment or prevention of fungal infections with PDK1 inhibitors” (priority 2010, dated 2014)

Assays:
[1] = test system: C. neoformans; assay: Antifungal susceptibility (microdilution MIC), C. neoformans; assay type: cell-based, Cryptococcus neoformans
Experimental: (§1) The antifungal activity of protein kinase inhibitors was determined using the Clinical and Laboratory Science Institute microdilution protocol M-27A2. Biofilm antifungal activity was determined using the protocol of Pierce et al. and is reported as MIC50S (Pierce et al., Nat. Protoc. 3:1494-1500 (2008)). Disk diffusion assays were performed as described previously (Roelants et al., Microbiology 150:3289-304 (2004)).
(§2) (FIG. 3A). […] Since the echinocandin class of cell wall-targeted 1,3-β-glucan synthase inhibitors is not active against C. neoformans, this represents one of the few cell wall-targeted molecules with activity against this important pathogen.

[2] = test system: Pkh1/2-dependent phosphorylation of Pil1-GFP; assay: Pil1-GFP phosphorylation immunoblot; assay type: cell-based, S. cerevisiae; conditions: sub-inhibitory KP-372-1 (1/2 MIC); cells with endogenous Pkh1/2 and cells over-expressing Pkh2; Western blot
Experimental: Cells were harvested at the indicated times and analyzed by Pil1-GFP immunoblotting. Pil1-P corresponds to the Pkh1/2-dependent phosphorylated Pil1 species.
Western blot analysis of Pil1-GFP was performed essentially as described (Luo et al., J. Biol. Chem. 283:10433-44 (2008)). Briefly, Pil1-GFP containing cells were harvested and lysed using the SDS-PAGE sample buffer method. Extracts corresponding to equivalent numbers of cells were fractionated by SDS-PAGE electrophoresis on 7% gels, transferred to nitrocellulose and blocked overnight in 50 mM Tris pH 7.5/150 mM NaCl/0.05% (v/v) Tween-20+5% (w/v) non-fat skim milk. Pil1-GFP was detected using mouse anti-GFP (1:10,000 dilution, Clontech Living Colors) (Clontech; Mountain View, Calif.) as primary and goat anti-mouse antibodies conjugated with horse-radish peroxidase (1:10,000) followed by visualization with ECL-Plus reagents (Amersham; Piscataway, N.J.).
S. cerevisiae strains containing a chromosomally-integrated PIL1-GFP allele were transformed with a vector control or a plasmid expressing PKH2 under the control of a galactose-inducible promoter. […] The phosphorylation status of Pil1-GFP was followed over a 3.5 hour time course by Western blot.

[3] = test system: C. albicans cells; assay: Propidium iodide uptake; assay type: cell-based, Candida albicans; conditions: KP-372-1 at MIC, 2 hours
Experimental: (§3) Bars indicate mean fold change in Miller units of β-galactosidase activity relative to logarithmic phase cells without calcofluor or PKI. Error bars indicate standard deviation of three independent trials performed in triplicate. […] The percentage of cells with PI uptake was determined by fluorescence.
A hallmark phenotype of mutations and drugs that interfere with CWI signaling is that their effects can be suppressed by the addition of osmotic support such as 1M soribitol to the culture medium. By equalizing the osmotic gradient across the plasma membrane, cell integrity is less dependent upon an intact cell wall.

[4] = test system: Candida spp.; assay: Antifungal susceptibility (microdilution MIC), Candida spp.; assay type: cell-based
Experimental: as §1, §2

[5] = test system: human protein kinases; conditions: large panel of human protein kinases; cited from earlier work
[6] = test system: CWI pathway reporter Rlm1-lacZ; assay: β-Galactosidase CWI pathway reporter assay (Rlm1-lacZ); assay type: cell-based; conditions: sub-inhibitory concentrations (1/2 MIC), S. cerevisiae
Experimental: as §3
Logarithmic phase S. cerevisiae (BY4741) cells harboring the pRLM1-lacZ plasmid were transferred to a 96-well plate, and treated with Calcofluor white ([…])+/−protein kinase inhibitor at sub-inhibitory concentrations (1/2MIC). The cells were incubated at room temperature for 5 hours and processed for β-galactosidase activity using the ThermoScientific Yeast β-galactosidase kit according to the manufacturer's instructions (Pierce; Rockford, Ill.). β-galactosidase activity was determined by measuring OD420 using a SpectraMax Plate reader (Molecular Devices) and expressed as fold change in Miller units (nmole/mg/min) relative to untreated cells. Each experiment was performed in duplicate with three independent isolates.
The novel, antifungal PKIs identified in the primary screen were evaluated for their ability to block CWI pathway signaling using a reporter construct that contains two copies of the consensus binding site for the CWI-pathway-regulated transcription factor Rlm1 fused to the β-galactosidase gene (Jung et al., Mol. Microbiol. 46:781-9 (2002)). […]

[7] = test system: normal cells; conditions: cited from earlier work
[8] = test system: fluid-phase endocytosis in S. cerevisiae; assay: Lucifer yellow (LY) endocytosis assay; assay type: cell-based; conditions: sub-lethal KP-372-1, 1 hour pre-treatment, 1 hour time course
Experimental: LY uptake assays were performed as described previously (Dulic et al., Methods Enzymol. 194:697-710 (1991)) using LY obtained from Sigma (St. Louis, Mo.). […] Cells were then exposed to LY and aliquots were removed at 15 minute intervals. Endocytosis was stopped by the addition of sodium azide/succinate and the percentage of cells with vacuolar LY staining was determined by fluorescence microscopy.
Pkh kinases are also important for endocytosis in yeast. […] LY binds to the plasma membrane and is transported to the vacuole (yeast lysosomal homolog) in PKH-dependent fashion.

[9] = test system: C. albicans; assay: Antifungal susceptibility (microdilution MIC), C. albicans; assay type: cell-based, Candida albicans
Experimental: as §1
To identify PKIs that disrupt yeast cell wall integrity, a four-part screening strategy as outlined in FIG. 1A was designed. The primary screen in the approach detects molecules that cause yeast cells to lyse, a characteristic phenotype of yeast cell wall damage, by use of an assay that detects the release of adenylate kinase (AK) to the growth medium as a reporter of yeast cell lysis. Previously it was shown that the AK assay in HTS format can detect as few as 500 lysed yeast cells in a sample of 10^5 cells (Didone et al., Nat. Protocol. 5:1107-14 (2010)). PKIs that cause yeast cells lysis (hits) were then re-confirmed by AK dose-response assays and tested for in vitro antifungal activity against the human fungal pathogen C. albicans using standard microdilution susceptibility testing. Last, to select PKIs specific for the CWI signaling pathway, the set of hits were tested for their ability to block the activation of a transcriptional reporter of the CWI-signaling pathway. […]

[10] = test system: leukemic and glioblastoma cells; conditions: cited from earlier work
[11] = test system: S. cerevisiae pkh and ypk mutants; assay: Disk diffusion assay, S. cerevisiae mutants; assay type: cell-based
Experimental: Plates were incubated at 30° C. for 3 days prior to photography.
as §1
Heterozygous diploid yeast mutants lacking one allele of the gene encoding a putative drug target are frequently hypersensitive to the effects of that drug. This is called drug-induced haploinsufficiency. Similarly, if a drug targets the products of two redundant genes, then deletion of one of those genes in a haploid yeast strain will hypersensitize the strain to that drug. […] Pkh1/2 phosphorylates two other AGC protein kinases involved in yeast cell wall integrity, Ypk1&2.

[12] = test system: eisosomes in S. cerevisiae cells; assay: Eisosome pattern by fluorescence microscopy (Pil1-GFP); assay type: cell-based; conditions: KP-372-1 (1/2 MIC), within one hour of treatment, versus DMSO
Experimental: Light and fluorescence microscopy was performed using a Nikon ES80 epi-fluorescence microscope equipped with a CoolSnap CCD camera. Images were collected using NIS-Elements Software and processed in PhotoShop. All images were collected with identical exposure settings and equally processed with respect to tone and contrast.
The micrographs of the KP-372-1-treated cells closely match those previously reported (Luo et al., J. Biol. Chem. 283:10433-44 (2008)) and, consequently, support a model in which Pil1 phosphorylation is required for eisosome assembly/stabilization.

O=C1c2ccccc2-c2nc3nnnn3nc21.O=C1c2ccccc2-c2nn3nnnc3nc21 [KP-372-1]
antifungal activity (in words) [1]: highly active
phosphorylation of Pil1-GFP [2]: rapidly blocked
cells stained by propidium iodide relative to YPD ([3]; 1M sorbitol-supplemented YPD): five-fold fewer cells were stained
percentage of cells stained by propidium iodide ([3]; 37° C., YPD): 36%
MIC ([4]; Candida spp., FIG. 7 legend): 3 to 25 µg/mL
antifungal activity (in words) ([4]; other Candida spp. compared with C. albicans and C. glabrata): less so
selectivity for a limited number of human kinases [5]: at least 10 fold
Rlm1-lacZ reporter activity induced by Calcofluor white [6]: completely abolished reporter activity
cytotoxicity toward normal cells [7]: without significant cytotoxicity
Lucifer yellow uptake (vacuolar localization) [8]: uptake is inhibited at early time points
antifungal activity (in words) ([9]; C. albicans): highly active
MIC ([9]; C. albicans growth assay, Table 1): 3 µg/mL
activity against leukemic and glioblastoma cells [10]: potent activity
zone of inhibition versus wild type ([11]; S. cerevisiae pkh2D mutant, compared with wild type or pkh1D): larger zone of inhibition
sensitivity versus wild type ([11]; S. cerevisiae ypk1D and ypk2D mutants): as sensitive to KP-372-1 as wild type
number of peripheral eisosomes [12]: dramatically decreased
